Source: US20080206761A1, “Ex Vivo Gene Expression in Whole Blood as a Model of Assessment of Individual Variation to Dietary Supplements” (priority 2005, published 2008)

System: TNF-α mRNA
Experiment: PHA-induced TNF-α mRNA expression in heparinized whole blood ex vivo
Format: cell-based, human
Conditions: supplement 30 min, then 100 μg/mL PHA 2 h, concentrations per footnote
Method: In this embodiment, phytohemagglutinin-induced gene expression of interleukin-2 (IL-2), interleukin-4 (IL-4), and tumor necrosis factor-α (TNF-α) were quantitated in the following manner. Fifty μL of heparinized whole blood was incubated with various dietary supplements for a period of 30 minutes. The following supplements were employed: vitamins A, C, and D, epigallocatechin gallate (from green tea), genistein (from soy), and curcumin (from the spice turmeric). Vitamin A is known to stimulate the immune system. […] Vitamin D appears to have protective effects against certain cancers. Epigallocatechin gallate is a powerful antioxidant, appears to reduce the multidrug resistance found in cancer cells, and preferentially induces apoptosis in neoplastic cells. Genistein has been found in some studies to have anticarcinogenic activity; possible mechanisms of action include upregulation of apoptosis, inhibition of angiogenesis, inhibition of DNA topoisomerase II and inhibition of protein tyrosine kinases. Curcumin has proapoptotic effects in neoplastic cells and interferes with the activity of the transcription factor NF-κB, which is often highly overexpressed in such cells.
After incubation with the dietary supplement, 100 μg/mL phytohemagglutinin (PHA) was added and incubation was continued for an additional 2 hours at 37° C. The concentration of each dietary supplement (see Table I, note) was slightly higher than reported blood levels. Then mRNA was purified, cDNA was synthesized, and the levels of IL-2, IL-4, and TNF-α were quantitated by TaqMan real time polymerase chain reaction (PCR) (see Holland, et al., “Detection of specific polymerase chain reaction product by utilizing the 5′ to 3′ exonuclease activity of Thermus aquaticus DNA polymerase,” Proc Natl Acad Sci USA 1991; 88: 7276-80), as described below.
The mRNA and cDNA were prepared from the whole blood that was exposed to the dietary components, as well as the whole blood which remained unexposed. In brief, home-made 96-well filterplates were placed over collection plates, and 150 μl 5 mM Tris, pH 7.4, was applied. Following centrifugation at 120×g for 1 min at 4° C., 50 μl of blood samples were applied to each well and immediately centrifuged at 120×g for 2 min at 4° C., followed by washing of each well with 300 μl PBS once with centrifugation at 2000×g for 5 min at 4° C. Then, 60 μl stock lysis buffer, containing for example 0.5% N-Lauroylsarcosine, 4×SSC, 10 mM Tris HCl, pH 7.4, 1 mM EDTA, 0.1% IGEPAL CA-630, and 1.791 M guanidine thiocyanate, supplemented with 1% 2-mercaptoethanol (Bio Rad, Hercules, Calif., USA), 0.5 mg/ml proteinase K (Pierce, Rockford, Ill., USA), 0.1 mg/ml salmon sperm DNA (5 Prime Eppendorf/Brinkmann, Westbury, N.Y., USA), 0.1 mg/ml E. coli tRNA (Sigma), a cocktail of 10 mM each of the specific reverse primers shown in Table 2, and standard RNA34 oligonucleotides, were applied to the filterplates, followed by incubation at 37° C. for 10 min. The filterplates were then placed over oligo(dT)-immobilized microplates (GenePlate, RNAture), and centrifuged at 2000×g for 5 min at 4° C. Following overnight storage at 4° C., the microplates were washed with 100 μl plain lysis buffer 3 times, followed by 150 μl of wash buffer (0.5 M NaCl, 10 mM Tris, pH 7.4, 1 mM EDTA) 3 times at 4° C. The cDNA was directly synthesized in each well by adding 30 μl of buffer containing 1×RT-buffer, 1.25 mM each of dNTP, 4 units rRNasin, and 80 units of MMLV reverse transcriptase (Promega) (without primers), and incubation at 37° C. for 2 hours. The specific primer-primed cDNA existed in solution, and oligo(dT)-primed cDNA stayed immobilized in the microplate. […]

CC1=C(/C=C/C(C)=C/C=C/C(C)=C/CO)C(C)(C)CCC1 [VA, vitamin A]
ΔΔCt (mean ± standard deviation, n = 3), TNFα mRNA (Subject 1): −1.56 ± 0.11
ΔΔCt (mean ± standard deviation, n = 3), TNFα mRNA (Subject 2): −0.57 ± 0.94
ΔΔCt (mean ± standard deviation, n = 3), TNFα mRNA (Subject 3): 0.51 ± 0.03
ΔΔCt (mean ± standard deviation, n = 3), TNFα mRNA (Subject 4): −0.08 ± 0.29
ΔΔCt (mean ± standard deviation, n = 3), TNFα mRNA (Subject 5): −0.76 ± 0.34
ΔΔCt (mean ± standard deviation, n = 3), TNFα mRNA (Subject 6): −0.50 ± 0.10
ΔΔCt (mean ± standard deviation, n = 3), TNFα mRNA (Subject 7): −1.11 ± 0.24
